Results as given in PubChem BioAssay AID624143 (National Center for Advancing Translational Sciences (NCATS), 2012).

Tested on: mouse plasma stability, LC-MS/MS, 48 h
Assay: qHTS Assay to Find Inhibitors of T. brucei phosphofructokinase: Mouse Plasma Stability Profiling
Conditions: at 2 µM; stronger effect = higher value

O=C(Cc1ccc(Cl)c(Cl)c1)Nc1ccc(S(=O)(=O)Nc2ccon2)cc1
percent remaining: 100%
